Experimental data reported in ChEMBL document CHEMBL3507680, “University of Dundee, Gates Library screen for HepG2 cell viability”.

Assay: Human HepG2 cell viability assay in 384 well format
Format: toxicity, cell-based
Design: dose 125 nL, time 70.5 hour; concentration not given beside the values
Settings: HepG2 cells, read-out: Inhibition

Structure (SMILES)	cytotoxicity at 70.5 h [%]
COc1ccc(CC(=O)N2CCC3(CC2)CCN(CC(C)C)C3=O)cc1	-10.5
CC(=O)N1[C@H](CN(C)C)C[C@@H]2CN(C(=O)c3ccsc3)CC[C@@H]21	-12.2
CCN1C(=O)CCC12CCN(C(=O)c1ccco1)CC2	-11.8
CC(=O)NCC(=O)N1CCC2(CC1)C(=O)N(CC1CC1)c1ccccc12	-11.7
O=C(NC1CC1)[C@H]1C[C@H]2OCC[C@H]2N(Cc2ccco2)C1	-8.44
CCOCC1CN(Cc2cc(C)on2)Cc2cn(C)nc21 (stereo not drawn)	4.78
O=C1NC(c2ccccc2)=N[C@@]12CC[C@@H]1CN(S(=O)(=O)C3CC3)C[C@@H]12	2.16
CN(C)CCOCC1CN(C(=O)c2ccccn2)Cc2ccnn2C1 (stereo not drawn)	6.38
O=C(c1ccc(Cl)cc1)N1CCc2nc(C(=O)N3CCCC3)sc2CC1	7.75
COCCN1CCn2cc(CNC(=O)C3CCC3)nc2C1	1.63
CNC(=O)c1nc2c(s1)CCN(C(=O)c1ccc(OC)cc1)CC2	-7.87
CN(C)CCOCC1CN(C(=O)c2cccnc2)Cc2ccnn2C1 (stereo not drawn)	-6.34
Cc1cccc(N2CC3(CCN(S(=O)(=O)c4ccccc4)C3)CC2=O)c1 (stereo not drawn)	-6.5
Cc1cnc(C(=O)N2CCC3(CC2)CC(c2ccncc2)C(=O)N3)cn1 (stereo not drawn)	-5.53
CC(=O)N1CC(=O)N(c2ccccc2)CC12CCN(Cc1ccsc1)C2 (stereo not drawn)	-8.03
CS(=O)(=O)N[C@@H]1CN(Cc2ccoc2)C[C@@H]2CCCO[C@@H]21	-8.39
Cc1cccc(C(=O)N2CCC3(CC2)CC(c2ccccc2)C(=O)N3)c1 (stereo not drawn)	-0.963
CS(=O)(=O)NC[C@@H]1OC[C@H]2CN(C(=O)c3cnccn3)CC[C@H]21	-1.54
Cn1cnc(S(=O)(=O)N2CCCn3cnc(CN4CCCC4)c3C2)c1	-3.74
COCC1CC2(CCNCC2)CN1c1ncccn1 (stereo not drawn)	2.77
Cc1cncc(C(=O)NCC2COCc3c(C)nnn3C2)c1 (stereo not drawn)	0.75
O=C(C1CCOCC1)N1CCC2(CC1)CC(Oc1ccccc1)CO2 (stereo not drawn)	3.04
CN(C)C(=O)N1Cc2nnn(C)c2C(COCC2CC2)C1 (stereo not drawn)	-6.79
Cn1cc(CN2CC3(CCN(C(=O)c4cscn4)C3)C2)cn1	-7.98
CCNC(=O)c1ncn2c1CN(C)S(=O)(=O)c1ccccc1-2	-8.36
Cc1ccc2c(c1)C1(CC2)CCN(c2nncs2)CC1	-4.57

Structure (SMILES)	cytotoxicity at 70.5 h [%]
Fc1cnc(N2CCC3(COCc4cnc(NCC5CC5)nc43)C2)nc1 (stereo not drawn)	-6.29
Cn1cc(CN2CCC3(CCCN(Cc4ccccn4)C3)CC2)cn1	-5.87
Cc1ccc(CS(=O)(=O)N2CC[C@H]3[C@H]2CCN3C)cc1	-5.67
Cn1cc(C(=O)NC[C@@H]2OC[C@H]3CN(S(C)(=O)=O)CC[C@H]32)cn1	-3.04
c1nc2c(c(C3CC3)n1)CCN(Cc1ccoc1)CC2	18.1
COCC1COCCC12CCN(C(=O)CCc1ccccc1)CC2 (stereo not drawn)	5.59
CCC(=O)N1CCC(c2nc3ccc(NC(C)C)cn3n2)CC1	4.46
O=C(N1CCCC1)N1CCc2c(CNc3ncccn3)cncc2C1	-1.33
COCCC(=O)N1CCc2c(CNc3ncccn3)cncc2C1	-1.53
COC1COC2(CCN(Cc3ccc4c(c3)OCO4)CC2)C1 (stereo not drawn)	0.98
Cc1cccc(CN2C[C@@H]3CN(C(=O)NC(C)C)C[C@@H]3C2=O)n1	-12
Cc1cccc(CN2C[C@@H]3CN(C(=O)c4ccco4)C[C@@H]3C2=O)n1	-13.1
O=C1CCCN1Cc1nnc2n1CCN(Cc1ccccn1)CC2	-7.47
Cc1cccc(CN2C[C@@H]3CN(C(=O)c4cnoc4C)C[C@@H]3C2=O)n1	-5.42
Cc1ccc(CN2CCc3nnc(CN4CCCC4=O)n3CC2)s1	-7.74
CC(C)Oc1ncnc2c1CCN(Cc1ccc(F)cc1)CC2	-5.44
CC(C)NC(=O)[C@H]1C[C@@H]2[C@@H](C1)OCCN2Cc1cccs1	-2.88
CNC(=O)[C@H]1C[C@H]2OCC[C@H]2N(CC2CC2)C1	-3.14
O=C(NC1CC1)[C@H]1C[C@H]2OCC[C@H]2N(Cc2ccc(F)cc2)C1	-6.46
CCOc1ncnc2c1CCN(Cc1cccs1)CC2	-8.1
O=C([C@H]1C[C@H]2OCC[C@H]2N(Cc2ccco2)C1)N1CCCO1	-14.8
O=C(C1=CCCC1)N1CC[C@]2(C[C@H](OCc3cccnc3)CO2)C1	-12.5
COc1ccc(C[C@H]2CN(c3cc(OC)ncn3)CC[C@H]2OC)cc1	11.6
Cn1cccc1C(=O)N[C@@H]1CN(Cc2cccs2)[C@@H]2COC[C@@H]21	-3.46
Cc1oncc1C(=O)N[C@@H]1CN(c2ncccn2)C[C@@H]2CCCO[C@@H]21	-10.7
CS(=O)(=O)N[C@@H]1CN(Cc2ccco2)C[C@@H]2CCCO[C@@H]21	-6.79

Structure (SMILES)	cytotoxicity at 70.5 h [%]
COCC1CC2(CCN(S(=O)(=O)C3CC3)CC2)CN1c1ncccn1 (stereo not drawn)	14.2
Cn1cc(CN2C[C@@H]3CCCO[C@@H]3[C@H](NC(=O)CC3CC3)C2)cn1	11.8
CC(C)N1CCOCC2(CCCN(C(=O)c3cn(C)cn3)C2)C1 (stereo not drawn)	0.0869
O=C(NCc1ccco1)[C@@]12CCO[C@@H]1CCN(c1ncccn1)C2	-2.22
O=C(NCc1ccco1)[C@@]12CCO[C@@H]1CCN(CC1CCOCC1)C2	-1.64
Cc1ccc(CNC(=O)c2nc3c(o2)CN(C(=O)c2cccnc2)C3)o1	-1.67
O=C(NC1CCC1)[C@@H]1CCO[C@@H]2CCN(C3CCCC3)C[C@H]21	-3.8
O=C(NCc1ccco1)[C@@]12CCO[C@@H]1CCN(C1CCC1)C2	2.1
COc1ccc(CC(=O)N2CCN(C)c3ncccc3C2)cc1	11.6
Fc1ccccc1CN1C[C@H](OCC2CCOCC2)[C@H]2OCCC[C@H]21	17.2
O=C(COC[C@H]1CC[C@H]2[C@H](CCN2c2ncccn2)O1)N1CCCC1	-3.63
CN(C)c1ncc2c(n1)C1(CCN(Cc3ccccc3)C1)COC2 (stereo not drawn)	-5.25
Cn1cc(N2CC3(CCN(Cc4cccs4)CC3)OCC2=O)cn1	-4.87
Cc1ccccc1CN1CCC2(COCc3cnc(N(C)C)nc32)C1 (stereo not drawn)	0.683
O=C1NC2(CCN(C(=O)c3ccccc3)CC2)CC1c1cccnc1 (stereo not drawn)	2.71
Cc1ccc(CN2Cc3c(C(=O)N(C)C)nn(C)c3C2)s1	-3.13
CCn1ncc2c1C(COCC1CC1)CN(S(=O)(=O)N(C)C)C2 (stereo not drawn)	-7.75
Cc1nc(CN2C(=O)COC3(CCN(Cc4nccs4)CC3)C2C)cs1 (stereo not drawn)	-6.92
O=C(Cc1cccs1)N1C[C@@H]2OCCN(CC3CCCO3)[C@@H]2C1 (stereo partly drawn)	-1.51
Cc1cccc(CN2CCc3ncnc(N4CCOCC4)c3CC2)n1	-1.5
Cn1ccc(C(=O)NC2CCC23CCN(C(=O)c2ccncc2)CC3)c1 (stereo not drawn)	-6.03
Cc1cccc(-c2ccc3nc(C4CCN(CC5CC5)CC4)nn3c2)c1	0.0128
Cc1nc(CN2C[C@@H]3CN(C(=O)c4cnccn4)C[C@@H]3C2)cs1	-11.6
Cc1nc(CN2C(=O)C[C@H]3[C@H]2CCN3C2CCOCC2)cs1	-2.79
CN1Cc2c(C(=O)Nc3cccnc3)ncn2-c2ccccc2S1(=O)=O	-8.44
O=C(c1cnoc1)N1CCC[C@]2(C[C@H](Oc3ncccc3F)CO2)C1	-3.55

Structure (SMILES)	cytotoxicity at 70.5 h [%]
CCN1CCC2(COCc3cnc(NCC4CC4)nc32)C1 (stereo not drawn)	-4.64
O=C(c1cnoc1)N1CCC[C@]2(C[C@@H](OCc3ccccn3)CO2)C1	-9.96
COC[C@@]12CCO[C@@H]1CCN(Cc1ccccc1F)C2	-9.38
O=C(NCc1cn2c(n1)CN(CC1CCOCC1)CC2)C1CCC1	-2.34
O=C([C@H]1CN(Cc2cccnc2)C[C@H]2OCC[C@@H]12)N1CCCO1	-6.93
O=C([C@H]1CN(Cc2ccncc2)C[C@H]2OCC[C@@H]12)N1CCCCO1	-14.4
CN(C)CCO[C@H]1CN(Cc2ccoc2)[C@@H]2COC[C@H]12	6.76
O=C(N[C@@H]1CN(c2ncccn2)C[C@@H]2CCCO[C@@H]21)c1cccnc1	7.96
CN(C)CCOCC1CN(C(=O)c2cccn2C)Cc2ccnn2C1 (stereo not drawn)	8.36
CN(C)CCO[C@H]1CN(Cc2ccc3c(c2)OCO3)[C@@H]2COC[C@H]12	-4.2
CN(C)CCOCC1CN(C(=O)c2ccnnc2)Cc2ccnn2C1 (stereo not drawn)	-14
CN(C)CCOCC1CN(C(=O)c2ccsc2)Cc2ccnn2C1 (stereo not drawn)	-5.3
CC(=O)N1CC(=O)N(c2cccnc2)CC12CCN(Cc1nccs1)C2 (stereo not drawn)	-0.821
Cn1ccnc1CN1CCN2C[C@H](Oc3cncnc3)C[C@H]2C1	0.558
O=C(NCc1ccco1)[C@@]12CCO[C@@H]1CCN(Cc1ccccn1)C2	-3.48
O=C(NCCN1CCCC1)c1nc2c(o1)CN(C(=O)c1cccnc1)C2	-1.83
CN1CCCN(C(=O)c2nc3c(o2)CN(C(=O)c2cccnc2)C3)CC1	-1.59
Cc1cc(C(=O)N2CCCC3(COCCN(CCN(C)C)C3)C2)no1 (stereo not drawn)	1.65
COc1ccc(CN2CCC3(CC2)CN(c2ccccn2)CCO3)cc1	2.33
O=C1[C@H]2CN(Cc3ccncc3)C[C@H]2CN1c1cncnc1	-0.121
CN1CC(=O)N(c2cnn(C)c2)CC12CCN(Cc1nccn1C)C2 (stereo not drawn)	-4.58
O=c1ccc2c(n1CCN1CCCC1)CCN(Cc1ccoc1)CC2	-5.75
CCOCC1CN(C)Cc2cnn(CC3CCCC3)c21 (stereo not drawn)	-5.11
c1cncc(C[C@H]2[C@H](N3CCOCC3)CCN2Cc2nccs2)c1	-3.76
COCC1CC2(CCN(Cc3ccccn3)CC2)CN1c1ncccn1 (stereo not drawn)	0.787
